These results are taken from ChEMBL document CHEMBL1142986, “Synthesis of valiolamine and some precursors for bioactive carbaglycosylamines from (-)-vibo-quercitol produced by biogenesis of myo-inositol” (J Nat Prod, 2007).

The target in this assay is Alpha-glucosidase MAL12 (Saccharomyces cerevisiae S288c, UniProt P53341). The experiment in a line: Inhibition of baker's yeast alpha-glucosidase.

The structures appear in SMILES notation. pIC50: −log10 of the molar value.

Sequence of Alpha-glucosidase MAL12 (P53341 whole entry): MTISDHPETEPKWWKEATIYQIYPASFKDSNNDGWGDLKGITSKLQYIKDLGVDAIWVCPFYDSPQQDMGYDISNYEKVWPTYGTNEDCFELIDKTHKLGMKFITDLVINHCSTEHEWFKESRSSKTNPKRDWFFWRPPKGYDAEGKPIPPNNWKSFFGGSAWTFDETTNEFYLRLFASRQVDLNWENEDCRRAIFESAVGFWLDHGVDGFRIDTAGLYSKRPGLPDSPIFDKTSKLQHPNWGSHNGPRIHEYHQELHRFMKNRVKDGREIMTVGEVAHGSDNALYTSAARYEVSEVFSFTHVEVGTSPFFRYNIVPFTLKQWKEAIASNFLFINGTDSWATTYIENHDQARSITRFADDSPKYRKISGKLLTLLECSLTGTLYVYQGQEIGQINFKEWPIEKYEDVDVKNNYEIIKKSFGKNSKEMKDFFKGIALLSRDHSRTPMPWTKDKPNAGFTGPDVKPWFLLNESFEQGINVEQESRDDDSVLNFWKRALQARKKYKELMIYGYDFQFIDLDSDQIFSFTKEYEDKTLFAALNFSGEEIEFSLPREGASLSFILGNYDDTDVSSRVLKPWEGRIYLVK

Compound `N[C@@H]1C[C@](O)(CO)[C@@H](O)[C@H](O)[C@H]1O` had a pIC50 of 4.44.
